For this test, the target named is T1, Endothelin-1 receptor (Homo sapiens, UniProt P25101).
T1 sequence (P25101 whole entry): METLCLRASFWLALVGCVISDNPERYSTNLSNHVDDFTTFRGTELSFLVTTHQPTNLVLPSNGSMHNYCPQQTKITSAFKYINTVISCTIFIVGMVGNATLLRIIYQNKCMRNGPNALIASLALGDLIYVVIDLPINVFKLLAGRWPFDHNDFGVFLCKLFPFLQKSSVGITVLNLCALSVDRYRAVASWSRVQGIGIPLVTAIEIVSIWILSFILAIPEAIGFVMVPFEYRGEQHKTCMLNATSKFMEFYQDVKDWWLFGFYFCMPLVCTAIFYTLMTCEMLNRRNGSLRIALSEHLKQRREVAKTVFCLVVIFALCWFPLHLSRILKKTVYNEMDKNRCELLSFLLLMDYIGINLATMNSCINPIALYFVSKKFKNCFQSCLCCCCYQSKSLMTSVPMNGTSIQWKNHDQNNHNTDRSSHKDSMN
Put plainly: Antagonist activity against human ET-1 by ELISA analysis. It counts as functional.

The structures appear in SMILES notation.

What is called IC50 is the concentration at which inhibition is half-maximal.

In turn, `COc1ccccc1Oc1c(NS(=O)(=O)c2ccc(C)cc2)nc(-c2ncccn2)nc1OCC(F)F` came in with an IC50 of 4.76 nM. In turn, `COc1ccccc1Oc1c(NS(=O)(=O)c2ccc(C)cc2)nc(-c2ncccn2)nc1OCC1CCC1` came in with an IC50 of 3.22 nM. The IC50 values of the last two compounds are within 1.5-fold of each other.

For the compound `COc1ccccc1Oc1c(NS(=O)(=O)c2ccccc2)nc(-c2ncccn2)nc1OCC1CCCN(C)C1` (stereo not given), it took 3.38 nM to reach half-maximal inhibition (IC50). With `COc1ccccc1Oc1c(NS(=O)(=O)c2ccc(C(C)(C)C)cc2)nc(-c2ncccn2)nc1OCC1CCC1` the figure was 1.05 nM; with `COc1ccccc1Oc1c(NS(C)(=O)=O)nc(-c2ncccn2)nc1OCC1CCC1`, 1.69 nM; with `C=CCCOc1nc(-c2ncccn2)nc(NS(=O)(=O)c2ccc(C)cc2)c1Oc1ccccc1OC`, 3.78 nM. The compound `COc1ccccc1Oc1c(NS(=O)(=O)c2ccc(C)cc2)nc(-c2ncccn2)nc1OCC1CCCN(C)C1` (stereo not given) displayed an IC50 of 2.46 nM. The figure for `CC#CCOc1nc(-c2ncccn2)nc(NS(=O)(=O)c2ccccc2)c1Oc1ccccc1OC` is 4.33 nM; for `COc1ccccc1Oc1c(NS(=O)(=O)c2ccc(C(C)(C)C)cc2)nc(-c2ncccn2)nc1OCC1CCCN1C` (stereo not given) it is 1.46 nM.

`COc1ccccc1Oc1c(NS(=O)(=O)c2ccc(C)cc2)nc(-c2ncccn2)nc1OCC1CCCN1C` (stereo not given) yielded an IC50 of 3.53 nM. With `C=CCCOc1nc(-c2ncccn2)nc(NS(=O)(=O)c2ccc(C(C)(C)C)cc2)c1Oc1ccccc1OC` the figure was 1.24 nM; with `COc1ccccc1Oc1c(NS(=O)(=O)c2ccccc2)nc(-c2ncccn2)nc1OCC1CCC1`, 1.84 nM; with `COc1ccccc1Oc1c(NS(C)(=O)=O)nc(-c2ncccn2)nc1OCC(F)F`, 0.47 nM. With `COc1ccccc1Oc1c(NS(=O)(=O)c2ccc(C(C)(C)C)cc2)nc(-c2ncccn2)nc1OCCC(C)C` the figure was 4.78 nM; with `COc1ccccc1Oc1c(NS(=O)(=O)c2ccccc2)nc(-c2ncccn2)nc1OCC1CCCC1`, 2.78 nM. The figure for `COc1ccccc1Oc1c(NS(C)(=O)=O)nc(-c2ncccn2)nc1OCC1CCCCN1C` (stereo not given) is 2.21 nM; for `CC/C=C/CCOc1nc(-c2ncccn2)nc(NS(=O)(=O)c2ccc(C)cc2)c1Oc1ccccc1OC` it is 3.92 nM; for `COc1ccccc1Oc1c(NS(=O)(=O)c2ccc(C(C)(C)C)cc2)nc(-c2ncccn2)nc1OCC1CCCC1` it is 1.15 nM. As to `COc1ccccc1Oc1c(NS(=O)(=O)c2ccccc2)nc(-c2ncccn2)nc1OCC1CC1`, the midpoint of inhibition, the IC50, lay at 2.44 nM. Compared with the last compound, the IC50 is about 2.1-fold higher. The figure for `COc1ccccc1Oc1c(NS(=O)(=O)c2ccccc2)nc(-c2ncccn2)nc1OCCC(C)C` is 1.73 nM; for `COc1ccccc1Oc1c(NS(=O)(=O)c2ccc(C(C)(C)C)cc2)nc(-c2ncccn2)nc1OCC1CCCN(C)C1` (stereo not given) it is 1.43 nM; for `C=CCCOc1nc(-c2ncccn2)nc(NS(=O)(=O)c2ccccc2)c1Oc1ccccc1OC` it is 3.78 nM. The figure for `CC#CCOc1nc(-c2ncccn2)nc(NS(C)(=O)=O)c1Oc1ccccc1OC` is 2.13 nM; for `COc1ccccc1Oc1c(NS(=O)(=O)c2ccc(C(C)(C)C)cc2)nc(-c2ncccn2)nc1OCC1CCCCN1C` (stereo not given) it is 2.59 nM; for `COc1ccccc1Oc1c(NS(C)(=O)=O)nc(-c2ncccn2)nc1OCC1CCCC1` it is 2.19 nM. `COc1ccccc1Oc1c(NS(=O)(=O)c2ccc(C)cc2)nc(-c2ncccn2)nc1OCC1CCCCN1C` (stereo not given) gave an IC50 of 1.14 nM.

In turn, `COc1ccccc1Oc1c(NS(=O)(=O)c2ccc(C(C)(C)C)cc2)nc(-c2ncccn2)nc1OCC1CC1` returned an IC50 of 1.22 nM.

The compound `COc1ccccc1Oc1c(NS(=O)(=O)c2ccc(C(C)(C)C)cc2)nc(-c2ncccn2)nc1OCC(F)F` had an IC50 of 0.77 nM. With `CC#CCOc1nc(-c2ncccn2)nc(NS(=O)(=O)c2ccc(C)cc2)c1Oc1ccccc1OC` the figure was 2.99 nM.

Take `COc1ccccc1Oc1c(NS(C)(=O)=O)nc(-c2ncccn2)nc1OCC1CCCN1C` (stereo not given): inhibition was half-maximal at 2.33 nM (IC50). `COc1ccccc1Oc1c(NS(=O)(=O)c2ccccc2)nc(-c2ncccn2)nc1OCC1CCCCN1C` (stereo not given): the IC50 came out at 1.91 nM. Compound `CC/C=C/CCOc1nc(-c2ncccn2)nc(NS(=O)(=O)c2ccc(C(C)(C)C)cc2)c1Oc1ccccc1OC` yielded an IC50 of 3.99 nM. The figure for `COc1ccccc1Oc1c(NS(C)(=O)=O)nc(-c2ncccn2)nc1OCC1CCCN(C)C1` (stereo not given) is 2.01 nM; for `COc1ccccc1Oc1c(NS(=O)(=O)c2ccc(C)cc2)nc(-c2ncccn2)nc1OCC1CC1` it is 1.21 nM. With `COc1ccccc1Oc1c(NS(=O)(=O)c2ccc(C)cc2)nc(-c2ncccn2)nc1OCCC(C)C` the figure was 1.39 nM; with `COc1ccccc1Oc1c(NS(=O)(=O)c2ccccc2)nc(-c2ncccn2)nc1OCC(F)F`, 0.88 nM; with `COc1ccccc1Oc1c(NS(=O)(=O)c2ccc(C)cc2)nc(-c2ncccn2)nc1OCC1CCCC1`, 1.62 nM. In turn, `COc1ccccc1Oc1c(NS(C)(=O)=O)nc(-c2ncccn2)nc1OCC1CC1` showed an IC50 of 2.38 nM. The figure for `CC/C=C/CCOc1nc(-c2ncccn2)nc(NS(=O)(=O)c2ccccc2)c1Oc1ccccc1OC` is 0.97 nM; for `C=CCCOc1nc(-c2ncccn2)nc(NS(C)(=O)=O)c1Oc1ccccc1OC` it is 2.41 nM.

These data come from ChEMBL document CHEMBL5625200 (Eur J Med Chem, 2023).
